Structures can show the parent of a compound that is named as a salt.
Tests used:
[1] = tested on: Bacillus pumilus spores (ATCC 27142); conditions: 150 ppm H2O2, CO2 39° C., 100 bar, continuous flow 10 g/min, 15 minutes; 10^6 spores
Description: Mask cutouts (4 cm 2) were inoculated with 10^6 spores contained in 100 μL of aqueous solution. The samples were placed inside sterilization bags and heat-sealed to be placed in a 600 mL stainless steel autoclave (Novagenesis, Novasterilis Inc.) provided with lower mechanical agitation. H2O2 was added as an additive at the bottom of the autoclave to avoid direct contact with the masks at a content of 150 ppm. The system is heated to 39° C. and pressurized with a CO2 flow to reach 100 bar. A continuous flow of CO2 of 0 to 10 g/min through the autoclave was maintained for a period of 15 minutes. Subsequently, the system is depressurized to reach atmospheric pressure at a rate of 14.3 bar/min.
The effectiveness of the sterilization method was evaluated by sowing tryptone-soybean agar culture medium and subsequent counting of formed colonies.

[2] = X-ray diffraction and infrared spectrum after treatment; type: physicochemical; conditions: 1200 ppm hydrogen peroxide, supercritical CO2 39° C., 140 bar, 2.5 and 2.5 hours; versus untreated
Description: FIG. 4. X-ray diffraction spectrum (A) and infrared spectrum (B) of vancomycin hydrochloride i) untreated and (ii) after addition of 1200 ppm hydrogen peroxide and processing with supercritical CO2 at 39° C., 140 bar during batch stages and continuous compressed CO2 flux for 2.5 and 2.5 hours, respectively. Caption: vancomycin untreated hydrochloride (black), vancomycin treated hydrochloride (gray)

| Structure (SMILES) | sterility level reached on FFP3 mask cutouts [1] | crystalline form after treatment [2] |
| --- | --- | --- |
| OO [Test H2O2, hydrogen peroxide] | SAL-6 | – |
| CN[C@H](CC(C)C)C(=O)N[C@H]1C(=O)N[C@@H](CC(N)=O)C(=O)N[C@H]2C(=O)N[C@H]3C(=O)N[C@H](C(=O)N[C@H](C(=O)O)c4cc(O)cc(O)c4-c4cc3ccc4O)[C@H](O)c3ccc(c(Cl)c3)Oc3cc2cc(c3O[C@@H]2O[C@H](CO)[C@@H](O)[C@H](O)[C@H]2O[C@H]2C[C@](C)(N)[C@H](O)[C@H](C)O2)Oc2ccc(cc2Cl)[C@H]1O [Vancomycin hydrochloride, vancomycin hydrochloride] | – | not altered |

Reference: patent US12611475B2, “System for implantation by sterilisation techniques” (Universidade de Santiago de Compostela, priority 2020, dated 2026)
